Laboratory results reported in patent US8476317B2, “N-alkylcarbonyl-amino acid ester compounds and their use for cough and pharyngitis” (priority 2011, dated 2013).
Several values for one entry are separate records, joined by “and”; a condition that tells them apart may be missing. Identical values can stand only once.

Assays:
TRP-M8 = target: T1, TRP-M8 (Homo sapiens, UniProt Q7Z2W7); assay: TRP-M8 receptor assay; format: cell-based; details: for EC50: data from Prof. D. Bautista's laboratory
T1 construct: expressed in transfected cells
Text: Psychic events such as refreshment, soothing, cooling, irritation, itch, and pain cannot be verbalized by animals (animals cannot say “it feels cold”, “ouch”, or that “it itches”). […] Receptor assays, based on cells transfected with the genes for proteins associated with thermosensation (e.g., TRP-M8, TRP-A1, TRP-V1) may be used as a model of sensory processes and provide quantitative data. […] The in vitro assay gives no information on onset and offset of action, but yields information on comparative potency of the two enantiomers. Further evaluation of the pharmacological properties of the test substances were based on direct tests in human subjects.
Thus, the D-configuration of the α-carbon of Ala is an absolute requirement for therapeutic utility in cough. This separation of activity between the D- and L-enantiomers was also apparent in the TRP-M8 receptor assay (data from Prof. D. Bautista's laboratory at the University of California at Berkeley). […] Thus, in an equal mixture (racemic) of D-Ala and L-Ala enantiomers, it is likely that ˜97% of the anti-cough activity would be contributed by the D-enantiomer (of Formula 1).

oral cavity / oropharynx = assay: Cooling in oral cavity after application on dorsal surface of tongue; format: in vivo, human; details: dose of 1 to 2 mg, normal subjects
Procedure: The subject is instructed to close and hold the substance in the mouth for at least 10 seconds and not to swallow. The description of sensations is then recorded at 5 to 10 minute intervals.
The compounds of Formula 1 are white crystalline solids at room temperatures. These compounds were tested as the pure powder (>95% purity, by HPLC analysis), or mixed 1:1 with powdered or granulated sugar. The test substances were applied at 2 to 5 mg on the mid-point of the dorsal surface of the tongue using a metal spatula or a plastic applicator. After depositing the test substance on the tongue, the subject was instructed to keep the mouth closed and allow the fluids of the mouth to inter-mix with the test substance and to distribute it to the back of the mouth (oropharynx). The presence and duration of subjective sensations from the mouth was then recorded.

cough = format: in vivo, human; details: for cooling action of ODT on the pharyngeal surface: Study 6, ODT; for effectiveness in reducing cough: Study 6, ODT 2.0 to 2.5 mg, 14 adult males with cough
Procedure: In 20 trials, 10 trials per subject, two mg of 95%+ pure powder of a D-Ala ethyl compound (No. 2 in Table 1, (R)-2-[((1R,2S,5R)-2-isopropyl-5-methyl-cyclohexanecarbonyl)-amino]-propionic acid ethyl ester)) of Formula (1) was placed on the mid-portion of the tongue of these two subjects. Both subjects reported relief from the desire to cough within 1 minute after application. Sensations of robust coolness in the back of the throat was noted and lasted for about 30 minutes. Applications of similar amounts of powdered sugar were not effective. The placebo could be clearly distinguished from the active compound because of the absence of cooling sensations.
A person with a documented 31-year history of asthma attacks volunteered to test one of the compounds falling within Formula (1). They were extremely sensitive to agents such as tobacco smoke, dust, pollen, odors, down/woolen materials, house cleansing products, pets, and sudden change of air temperature, and reacted with violent coughing, mucus secretions, wheezing, choking, and shortness of breath. At the time of this trial, they were taking these medications for their condition: theophylline, Allegra®, Advair®, Intal®, and Singulair®. In 5 trials, during a coughing spree, they placed one to two mg of 95%+ pure powder of a D-Ala ethyl ester (No. 2 in Table 1, ((R)-2-[((1R,2S,5R)-2-isopropyl-5-methyl-cyclohexanecarbonyl)-amino]-propionic acid ethyl ester))) of Formula (1) on the mid-portion of their tongue. They reported a soothing and cool sensation with a slight taste similar to Eucalyptus oil in their mouth and throat. Coughing stopped after 3 to 5 minutes and breathing was normal. […] In three trials when the compound was applied at night, they slept through the night without being awakened by cough. Their spouse remarked that, in over 30 years of marriage, this was the first time that they had seen an effective medication for their cough. They noted that the irritative signals of cough were absent in the presence of the applied chemical, but they still sensed a mechanical build up of secretions in their airways and could voluntarily cough up such secretions if necessary. They continue to use the test compound for management of their asthma, with the knowledge and consent of their physician.
A person had adult-onset asthma for 20 years. Triggers for attacks were tobacco smoke, dust, and changes in air temperature. They used Foradil® (formoterol fumarate) and Asmanex® (mometasone fuorate) twice a day to control their asthma, and monitored their pulmonary function with a portable device for measuring peak expiratory flow. They had daily episodes of both productive and non-productive cough. In 5 trials, when they felt throat irritation and a desire to cough, placement of 1 to 3 mg of (R)-2-[((1R,2S,5R)-2-isopropyl-5-methyl-cyclohexanecarbonyl)-amino]-propionic acid ethyl ester) (No. 2 in Table 1) provided rapid relief and was described as soothing and removed “tightness” in the chest. Peak expiratory flow improved from 320 Umin to 370 Umin. […] The subjective response to the long-acting NACE compound was definitely favourable. The subject remarked that the best time to use the NACE compuound was after inhaling the crystalline Foradil® because this inhaled drug irritated their throat.
ODT containing 2.0 to 2.5 mg of D-Aa Me Ester, D-Ala Et Ester, or D-Ala iPr Ester (identified chemically in Table 1 as No. 1, No. 2, and No. 3, respectively) were prepared using mannitol/maltitol as the excipient and stored in tic-tac boxes each containing 10 tablets. Over a course of two years, 14 adult males with cough tested these tablets. The causes of coughing were colds/flu, allergies, pharyngitis, excessive smoking, and two cases of gastroesophageal reflux. These individuals all had advanced degrees (M.D. or Ph.D.) and were motivated to try the tablets by scientific curiosity or because of financial interests in drug development, or, in several cases, by the annoyance caused by the cough. […]

T1 sequence (Q7Z2W7 whole entry, species assumed): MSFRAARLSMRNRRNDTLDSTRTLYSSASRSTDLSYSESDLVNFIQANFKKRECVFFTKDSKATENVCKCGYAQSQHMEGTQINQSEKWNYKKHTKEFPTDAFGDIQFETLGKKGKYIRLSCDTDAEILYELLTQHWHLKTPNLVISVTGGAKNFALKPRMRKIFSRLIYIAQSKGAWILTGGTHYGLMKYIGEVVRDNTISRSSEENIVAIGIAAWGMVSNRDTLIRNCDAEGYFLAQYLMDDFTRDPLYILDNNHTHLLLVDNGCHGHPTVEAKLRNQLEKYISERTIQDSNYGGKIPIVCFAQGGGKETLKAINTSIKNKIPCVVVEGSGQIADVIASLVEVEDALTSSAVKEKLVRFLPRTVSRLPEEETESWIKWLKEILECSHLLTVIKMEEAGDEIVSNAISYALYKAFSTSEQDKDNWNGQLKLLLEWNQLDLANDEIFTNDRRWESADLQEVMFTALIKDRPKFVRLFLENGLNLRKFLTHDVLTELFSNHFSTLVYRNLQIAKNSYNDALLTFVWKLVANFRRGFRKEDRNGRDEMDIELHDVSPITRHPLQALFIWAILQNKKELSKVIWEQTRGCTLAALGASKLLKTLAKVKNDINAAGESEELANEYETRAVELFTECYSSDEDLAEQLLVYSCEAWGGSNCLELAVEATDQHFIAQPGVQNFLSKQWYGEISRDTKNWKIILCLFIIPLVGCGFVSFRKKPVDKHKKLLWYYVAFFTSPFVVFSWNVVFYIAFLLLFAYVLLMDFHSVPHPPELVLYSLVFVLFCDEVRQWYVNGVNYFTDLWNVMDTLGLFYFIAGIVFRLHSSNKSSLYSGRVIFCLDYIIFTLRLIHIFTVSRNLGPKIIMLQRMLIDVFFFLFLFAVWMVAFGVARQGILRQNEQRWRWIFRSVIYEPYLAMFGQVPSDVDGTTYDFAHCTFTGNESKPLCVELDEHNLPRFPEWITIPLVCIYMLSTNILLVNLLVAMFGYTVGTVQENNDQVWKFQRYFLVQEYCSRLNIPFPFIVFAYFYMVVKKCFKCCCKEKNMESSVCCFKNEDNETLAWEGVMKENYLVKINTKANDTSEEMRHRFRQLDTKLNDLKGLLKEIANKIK

Row | SMILES | difference of EC50, D-Ala-OEt versus L-Ala-OEt (TRP-M8; TRP-M8 receptor assay) | EC50 (TRP-M8) | duration of cooling sensations on the tongue (oral cavity / oropharynx) | duration of absence of irritation and itching at the back of the throat (cough signals) (cough; Study 3) | time individual was observed not to cough (cough; Study 3) | time desire to cough was removed (cough; Study 3, after 4 or 6 applications within 2 days) | time to relief from the desire to cough (cough; Study 3, two cigar smokers, two mg powder on tongue) | duration of robust coolness in the back of the throat (cough; Study 3, two mg powder on tongue) | time until coughing stopped (cough; Study 4, asthmatic, one to two mg on tongue) | recurrence of asthmatic coughing attacks (cough; Study 4, continued use) | effect when given in the midst of a productive cough spell (cough; Study 5, 3 episodes) | relief of throat irritation and desire to cough (cough; Study 5, 5 trials, 1 to 3 mg) | Peak expiratory flow (cough; Study 5, asthmatic, 1 to 3 mg, improved from 320) | cooling action of ODT on the pharyngeal surface (cough) | effectiveness in reducing cough (cough) | side-effects (cough; human, in vivo)
1 | CCOC(=O)[C@@H](C)NC(=O)[C@@H]1C[C@H](C)CC[C@H]1C(C)C [D-Ala-OEt, (R)-2-[((1R,2S,5R)-2-isopropyl-5-methyl-cyclohexanecarbonyl)-amino]-propionic acid ethyl ester] | 37 fold | 0.48 µM and 0.5 µM | about 30 minutes | 4 to 5 h | 6 to 8 h | at least 5 days | ≤ 1 min | about 30 minutes | 3 to 5 min | have not recurred with any severity for one month | no significant effects were observed | rapid relief | 370 Umin | robust cooling action | 100% | did not sense any build up of mucus or other side-effects
2 | COC(=O)[C@@H](C)NC(=O)[C@@H]1C[C@H](C)CC[C@H]1C(C)C [D-Ala-OMe, (R)-2-[((1R,2S,5R)-2-isopropyl-5-methyl-cyclohexanecarbonyl)-amino]-propionic acid methyl ester] | – | – | about 30 minutes | – | – | – | – | – | – | – | – | – | – | robust cooling action | 100% | –
3 | CCOC(=O)C(C)NC(=O)[C@@H]1C[C@H](C)CC[C@H]1C(C)C (stereo partly drawn) [L-Ala-OEt] | – | 18 µM | – | – | – | – | – | – | – | – | – | – | – | inactive | – | –
